Experimental data reported in article PMC3969223, “Characterization of WZ4003 and HTH-01-015 as selective inhibitors of the LKB1-tumour-suppressor-activated NUAK kinases” (Biochemical Journal, 2013).

Legend:
Assay in all cases: Kinase profiling
Assay type in all cases: biochemical
Settings in all cases: 0.1 or 1 μM inhibitor; mean of triplicate
ULK2 = ULK2 (Homo sapiens, UniProt Q8IYT8)
Method in brief: (§1)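 Screened in vitro against a 140-kinase panel with inhibitor at 0.1 or 1 μM. Values are percent of kinase activity remaining relative to DMSO control reactions, averaged from triplicate reactions ±S.D.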

JNK2 = JNK2 (Homo sapiens, UniProt P45984)
Chain of JNK2 (P45984 whole entry): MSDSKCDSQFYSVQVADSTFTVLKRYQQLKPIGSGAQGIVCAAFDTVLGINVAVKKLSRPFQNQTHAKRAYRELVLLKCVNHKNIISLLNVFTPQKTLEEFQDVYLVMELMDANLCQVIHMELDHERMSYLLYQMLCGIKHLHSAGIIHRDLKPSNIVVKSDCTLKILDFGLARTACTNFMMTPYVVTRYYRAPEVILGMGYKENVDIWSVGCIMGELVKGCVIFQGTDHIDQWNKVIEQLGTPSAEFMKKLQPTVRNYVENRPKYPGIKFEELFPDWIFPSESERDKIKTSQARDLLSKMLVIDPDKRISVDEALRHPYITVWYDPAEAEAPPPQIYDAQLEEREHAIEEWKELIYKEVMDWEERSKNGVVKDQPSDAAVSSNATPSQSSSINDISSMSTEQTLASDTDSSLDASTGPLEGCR
Method in brief: as §1

SmMLCK = SmMLCK (Homo sapiens, UniProt Q15746)
Method in brief: as §1

MAPKAP-K2 = MAPKAP-K2 (Homo sapiens, UniProt P49137)
Chain of MAPKAP-K2 (P49137 whole entry): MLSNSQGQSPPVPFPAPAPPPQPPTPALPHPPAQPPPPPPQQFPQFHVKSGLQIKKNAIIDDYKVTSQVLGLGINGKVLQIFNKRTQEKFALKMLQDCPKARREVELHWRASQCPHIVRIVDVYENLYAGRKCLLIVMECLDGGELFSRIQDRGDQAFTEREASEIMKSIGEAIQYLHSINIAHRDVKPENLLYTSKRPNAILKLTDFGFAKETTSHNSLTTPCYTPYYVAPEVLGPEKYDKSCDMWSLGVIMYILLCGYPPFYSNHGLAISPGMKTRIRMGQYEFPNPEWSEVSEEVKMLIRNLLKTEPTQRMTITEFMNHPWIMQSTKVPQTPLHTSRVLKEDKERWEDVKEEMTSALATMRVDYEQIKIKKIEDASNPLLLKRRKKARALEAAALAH
Method in brief: as §1

IKKβ = IKKβ (Homo sapiens, UniProt O14920)
Chain of IKKβ (O14920 whole entry): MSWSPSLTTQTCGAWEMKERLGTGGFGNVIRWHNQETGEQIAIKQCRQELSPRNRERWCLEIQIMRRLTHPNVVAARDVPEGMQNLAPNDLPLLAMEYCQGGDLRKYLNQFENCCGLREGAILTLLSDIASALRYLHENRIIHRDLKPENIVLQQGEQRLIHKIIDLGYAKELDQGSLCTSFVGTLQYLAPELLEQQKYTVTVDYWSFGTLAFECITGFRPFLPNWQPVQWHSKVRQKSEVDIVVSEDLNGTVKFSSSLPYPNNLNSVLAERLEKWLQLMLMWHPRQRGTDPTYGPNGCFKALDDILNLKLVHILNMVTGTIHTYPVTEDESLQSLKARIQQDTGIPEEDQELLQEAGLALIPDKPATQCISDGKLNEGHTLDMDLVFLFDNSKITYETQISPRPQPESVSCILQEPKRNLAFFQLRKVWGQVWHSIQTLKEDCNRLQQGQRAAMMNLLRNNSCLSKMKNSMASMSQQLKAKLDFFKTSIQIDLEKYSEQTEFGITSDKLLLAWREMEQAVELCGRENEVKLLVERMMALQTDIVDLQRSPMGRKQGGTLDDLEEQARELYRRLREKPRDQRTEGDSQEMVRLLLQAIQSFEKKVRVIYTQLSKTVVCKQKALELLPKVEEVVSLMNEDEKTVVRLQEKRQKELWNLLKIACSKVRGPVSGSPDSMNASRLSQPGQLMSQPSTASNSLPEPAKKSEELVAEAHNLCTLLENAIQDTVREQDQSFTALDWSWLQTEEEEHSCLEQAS
Method in brief: as §1

DAPK1 = DAPK1 (Homo sapiens, UniProt P53355)
Method in brief: as §1

TTK = TTK (Homo sapiens, UniProt P33981)
Method in brief: as §1

EPH-B4 = EPH-B4 (Homo sapiens, UniProt P54760)
EPH-A4 = EPH-A4 (Homo sapiens, UniProt P54764)
Method in brief: as §1

CK1δ = CK1δ (Homo sapiens, UniProt P48730)
Method in brief: as §1

ERK5 = ERK5 (Homo sapiens, UniProt Q13164)
Method in brief: as §1

CDK2-Cyclin A = CDK2-Cyclin A (Homo sapiens, UniProt P24941)
Method in brief: as §1

Lck = Lck (Homo sapiens, UniProt P06239)
Chain of Lck (P06239 whole entry): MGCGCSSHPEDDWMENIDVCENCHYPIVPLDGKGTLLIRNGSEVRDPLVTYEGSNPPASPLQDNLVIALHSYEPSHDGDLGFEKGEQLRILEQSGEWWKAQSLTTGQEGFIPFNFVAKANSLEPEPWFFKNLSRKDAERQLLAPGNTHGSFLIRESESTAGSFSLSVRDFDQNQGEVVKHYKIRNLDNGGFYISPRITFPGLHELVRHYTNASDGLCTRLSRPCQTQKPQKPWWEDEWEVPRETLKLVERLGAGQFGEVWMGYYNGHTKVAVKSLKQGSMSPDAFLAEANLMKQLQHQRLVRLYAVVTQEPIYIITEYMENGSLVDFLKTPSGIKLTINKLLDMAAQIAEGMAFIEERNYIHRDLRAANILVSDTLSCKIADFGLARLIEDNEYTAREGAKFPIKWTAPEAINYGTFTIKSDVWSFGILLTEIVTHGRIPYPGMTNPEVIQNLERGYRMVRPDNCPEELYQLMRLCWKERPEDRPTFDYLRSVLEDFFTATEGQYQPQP
Method in brief: as §1

MARK2 = MARK2 (Homo sapiens, UniProt Q7KZI7)
Chain of MARK2 (Q7KZI7 whole entry): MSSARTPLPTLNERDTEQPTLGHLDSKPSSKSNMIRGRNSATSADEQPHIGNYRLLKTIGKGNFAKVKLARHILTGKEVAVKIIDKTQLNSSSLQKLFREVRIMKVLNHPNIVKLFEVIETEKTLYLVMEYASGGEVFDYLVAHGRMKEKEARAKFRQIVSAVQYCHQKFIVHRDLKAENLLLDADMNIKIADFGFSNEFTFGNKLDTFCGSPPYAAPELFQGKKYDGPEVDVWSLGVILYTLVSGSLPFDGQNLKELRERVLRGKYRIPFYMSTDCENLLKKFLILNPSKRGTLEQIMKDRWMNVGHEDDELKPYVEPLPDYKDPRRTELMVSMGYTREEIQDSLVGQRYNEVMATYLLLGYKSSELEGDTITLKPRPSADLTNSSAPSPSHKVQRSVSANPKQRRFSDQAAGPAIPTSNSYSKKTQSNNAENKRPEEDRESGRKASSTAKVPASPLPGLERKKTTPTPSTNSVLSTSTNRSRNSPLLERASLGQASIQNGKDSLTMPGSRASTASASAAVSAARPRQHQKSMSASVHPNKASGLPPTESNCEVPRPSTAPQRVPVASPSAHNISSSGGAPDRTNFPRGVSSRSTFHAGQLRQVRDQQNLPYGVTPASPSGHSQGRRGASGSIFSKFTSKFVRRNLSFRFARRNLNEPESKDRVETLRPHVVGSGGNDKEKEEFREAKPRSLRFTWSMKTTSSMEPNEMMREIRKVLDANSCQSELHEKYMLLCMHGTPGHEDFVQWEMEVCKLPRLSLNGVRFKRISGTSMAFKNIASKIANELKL
Method in brief: as §1

JNK1 = JNK1 (Homo sapiens, UniProt P45983)
PIM1 = PIM1 (Homo sapiens, UniProt P11309)
GCK = GCK (Homo sapiens, UniProt Q12851)
p38γ MAPK = p38γ MAPK (Homo sapiens, UniProt P53778)
Chain of p38γ MAPK (P53778 whole entry): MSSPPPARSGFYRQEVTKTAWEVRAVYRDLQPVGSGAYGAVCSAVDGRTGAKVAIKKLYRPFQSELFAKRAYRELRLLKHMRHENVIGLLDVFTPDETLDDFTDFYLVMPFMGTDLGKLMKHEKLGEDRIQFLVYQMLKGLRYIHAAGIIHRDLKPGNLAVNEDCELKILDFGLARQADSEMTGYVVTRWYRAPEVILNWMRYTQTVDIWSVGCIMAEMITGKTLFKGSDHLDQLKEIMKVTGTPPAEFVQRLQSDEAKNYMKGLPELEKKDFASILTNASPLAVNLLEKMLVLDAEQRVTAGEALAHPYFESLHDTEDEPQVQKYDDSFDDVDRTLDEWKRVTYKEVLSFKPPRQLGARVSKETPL

PKCα = PKCα (Homo sapiens, UniProt P17252)
Method in brief: as §1

HIPK2 = HIPK2 (Homo sapiens, UniProt Q9H2X6)
Method in brief: as §1

MELK = MELK (Homo sapiens, UniProt Q14680)
Method in brief: as §1

EPH-A2 = EPH-A2 (Homo sapiens, UniProt P29317)
Method in brief: as §1

Chain of ULK2 (Q8IYT8 whole entry): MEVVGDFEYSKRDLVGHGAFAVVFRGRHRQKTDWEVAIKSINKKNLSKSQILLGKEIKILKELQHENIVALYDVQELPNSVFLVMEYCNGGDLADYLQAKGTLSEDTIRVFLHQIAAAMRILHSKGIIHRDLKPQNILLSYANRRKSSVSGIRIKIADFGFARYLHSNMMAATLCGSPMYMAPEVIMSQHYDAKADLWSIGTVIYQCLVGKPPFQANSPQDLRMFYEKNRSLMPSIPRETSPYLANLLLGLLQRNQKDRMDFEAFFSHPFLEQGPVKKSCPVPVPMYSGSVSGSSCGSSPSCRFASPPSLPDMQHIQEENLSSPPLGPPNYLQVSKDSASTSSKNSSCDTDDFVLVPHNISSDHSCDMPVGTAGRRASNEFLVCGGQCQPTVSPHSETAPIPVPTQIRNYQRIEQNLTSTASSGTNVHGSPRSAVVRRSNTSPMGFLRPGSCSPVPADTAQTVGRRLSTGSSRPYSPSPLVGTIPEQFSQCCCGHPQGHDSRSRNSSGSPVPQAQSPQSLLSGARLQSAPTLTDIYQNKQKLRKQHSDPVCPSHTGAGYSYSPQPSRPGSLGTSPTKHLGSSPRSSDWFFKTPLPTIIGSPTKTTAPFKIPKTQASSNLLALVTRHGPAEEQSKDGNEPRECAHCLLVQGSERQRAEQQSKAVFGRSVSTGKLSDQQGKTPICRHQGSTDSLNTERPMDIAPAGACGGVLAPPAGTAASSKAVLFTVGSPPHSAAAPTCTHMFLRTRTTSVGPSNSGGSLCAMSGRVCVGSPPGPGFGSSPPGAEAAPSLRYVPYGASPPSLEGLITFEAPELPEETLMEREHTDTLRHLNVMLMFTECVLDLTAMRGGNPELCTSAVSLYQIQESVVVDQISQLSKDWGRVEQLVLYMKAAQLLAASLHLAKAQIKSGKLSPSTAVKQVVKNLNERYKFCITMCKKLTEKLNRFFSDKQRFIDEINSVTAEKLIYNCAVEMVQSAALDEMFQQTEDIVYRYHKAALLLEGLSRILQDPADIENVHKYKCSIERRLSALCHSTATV

SMILES: CCC(=O)Nc1cccc(Oc2nc(Nc3ccc(N4CCN(C)CC4)cc3OC)ncc2Cl)c1 [WZ4003]
- ULK2 activity, percentage of DMSO control (ULK2): 37 percentage

SMILES: Cc1nc(Nc2cnn(C3CCNCC3)c2)nc2c1N(C)C(=O)c1cc3ccccc3cc1N2C [HTH-01-015]
- JNK2 activity, percentage of DMSO control (JNK2): 130 percentage
- SmMLCK activity, percentage of DMSO control (SmMLCK): 77 percentage
- MAPKAP-K2 activity, percentage of DMSO control (MAPKAP-K2): 118 percentage
- IKKβ activity, percentage of DMSO control (IKKβ): 81 percentage
- DAPK1 activity, percentage of DMSO control (DAPK1): 100 percentage
- TTK activity, percentage of DMSO control (TTK): 118 percentage
- EPH-B4 activity, percentage of DMSO control (EPH-B4): 102 percentage
- EPH-A4 activity, percentage of DMSO control (EPH-A4): 94 percentage
- CK1δ activity, percentage of DMSO control (CK1δ): 94 percentage
- ERK5 activity, percentage of DMSO control (ERK5): 121 percentage
- CDK2-Cyclin A activity, percentage of DMSO control (CDK2-Cyclin A): 96 percentage
- Lck activity, percentage of DMSO control (Lck): 90 percentage
- MARK2 activity, percentage of DMSO control (MARK2): 99 percentage
- JNK1 activity, percentage of DMSO control (JNK1): 100 percentage
- PIM1 activity, percentage of DMSO control (PIM1): 92 percentage
- GCK activity, percentage of DMSO control (GCK): 126 percentage
- p38γ MAPK activity, percentage of DMSO control (p38γ MAPK): 100 percentage
- PKCα activity, percentage of DMSO control (PKCα): 117 percentage
- HIPK2 activity, percentage of DMSO control (HIPK2): 107 percentage
- MELK activity, percentage of DMSO control (MELK): 99 percentage
- EPH-A2 activity, percentage of DMSO control (EPH-A2): 84 percentage
